Data: ChEMBL document CHEMBL1777692, “Elucidation of common pharmacophores from analysis of targeted metabolites transported by the multispecific drug transporter-Organic anion transporter1 (Oat1)” (Bioorg Med Chem, 2011)

How the values were obtained:
[1] = molecular target: T1, Solute carrier family 22 member 6 (Rattus norvegicus, UniProt O35956); assay: Inhibition of rat Oat1 expressed in pig […] cells; type: cell-based
T1 sequence (O35956 whole entry): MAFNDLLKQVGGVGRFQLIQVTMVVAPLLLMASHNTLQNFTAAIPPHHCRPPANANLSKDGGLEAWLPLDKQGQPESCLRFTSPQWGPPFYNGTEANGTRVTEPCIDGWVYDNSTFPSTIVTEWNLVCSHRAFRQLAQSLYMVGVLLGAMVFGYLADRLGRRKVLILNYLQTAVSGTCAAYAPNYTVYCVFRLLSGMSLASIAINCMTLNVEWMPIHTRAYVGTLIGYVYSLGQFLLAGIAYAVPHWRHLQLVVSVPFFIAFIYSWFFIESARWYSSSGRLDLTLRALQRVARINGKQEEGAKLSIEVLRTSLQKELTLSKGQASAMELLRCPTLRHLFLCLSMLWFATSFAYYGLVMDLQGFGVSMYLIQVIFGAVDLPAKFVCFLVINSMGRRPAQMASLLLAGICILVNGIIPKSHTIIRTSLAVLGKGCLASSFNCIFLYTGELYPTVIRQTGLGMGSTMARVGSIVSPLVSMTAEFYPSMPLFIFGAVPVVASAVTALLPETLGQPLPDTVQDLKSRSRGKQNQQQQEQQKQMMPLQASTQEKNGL

[2] = molecular target: T1, Solute carrier family 22 member 6; assay: Inhibition of rat Oat1 expressed in Xenopus oocytes; type: cell-based, Oocyte

## C[C@]12CC[C@@H]3c4ccc(O)cc4CC[C@H]3[C@@H]1CC[C@@H]2O[C@@H]1O[C@H](C(=O)O)[C@@H](O)[C@H](O)[C@H]1O [ESTRADIOL 17B GLUCURONIDE]
[1]
  Ki: > 300 µM

## CCc1cccc2c3c([nH]c12)C(CC)(CC(=O)O)OCC3 (centres undefined) [ETODOLAC]
[1]
  Ki: > 100 µM

## CCSC[C@H](NC(C)=O)C(=O)O
[2]
  Ki: 1100 µM

## CC[C@H](C)C(=O)O[C@H]1C[C@H](O)C=C2C=C[C@H](C)[C@H](CC[C@@H](O)C[C@@H](O)CC(=O)O)[C@H]21 [PRAVASTATIN]
[1]
  Ki: 52 µM
